Measured values: ChEMBL document CHEMBL1743141, “Membrane transporters in drug development” (Nat Rev Drug Discov, 2010)

Experiments:
Format in all cases: ADME
[1] = molecular target: T1, Solute carrier organic anion transporter family member 1B3 (Homo sapiens, UniProt Q9NPD5); assay: Substrates of transporters of clinical importance in the absorption and disposition of drugs, OATP1B3
T1 sequence (Q9NPD5 whole entry): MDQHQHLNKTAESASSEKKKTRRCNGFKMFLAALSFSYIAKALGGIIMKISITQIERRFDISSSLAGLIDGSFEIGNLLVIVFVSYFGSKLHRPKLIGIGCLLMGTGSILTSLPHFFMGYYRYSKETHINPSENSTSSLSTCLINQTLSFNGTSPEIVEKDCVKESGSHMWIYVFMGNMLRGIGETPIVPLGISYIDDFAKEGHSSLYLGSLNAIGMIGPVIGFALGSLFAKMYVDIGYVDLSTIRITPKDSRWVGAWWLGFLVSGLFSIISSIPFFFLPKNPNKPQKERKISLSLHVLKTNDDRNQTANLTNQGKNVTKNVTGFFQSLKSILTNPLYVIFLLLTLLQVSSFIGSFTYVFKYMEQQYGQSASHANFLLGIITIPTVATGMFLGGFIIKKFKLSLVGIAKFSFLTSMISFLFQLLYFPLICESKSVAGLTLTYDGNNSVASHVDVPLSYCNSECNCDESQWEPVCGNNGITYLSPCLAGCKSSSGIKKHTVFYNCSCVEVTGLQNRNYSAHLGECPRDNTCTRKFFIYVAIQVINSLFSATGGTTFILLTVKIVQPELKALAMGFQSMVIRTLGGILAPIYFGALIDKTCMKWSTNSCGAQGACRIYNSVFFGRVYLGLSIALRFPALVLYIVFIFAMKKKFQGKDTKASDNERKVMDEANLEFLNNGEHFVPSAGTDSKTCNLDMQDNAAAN

[2] = molecular target: ATP-binding cassette sub-family C member 2 (Homo sapiens, UniProt Q92887); assay: Substrates of transporters of clinical importance in the absorption and disposition of drugs, MRP2
Sequence of ATP-binding cassette sub-family C member 2 (Q92887 whole entry): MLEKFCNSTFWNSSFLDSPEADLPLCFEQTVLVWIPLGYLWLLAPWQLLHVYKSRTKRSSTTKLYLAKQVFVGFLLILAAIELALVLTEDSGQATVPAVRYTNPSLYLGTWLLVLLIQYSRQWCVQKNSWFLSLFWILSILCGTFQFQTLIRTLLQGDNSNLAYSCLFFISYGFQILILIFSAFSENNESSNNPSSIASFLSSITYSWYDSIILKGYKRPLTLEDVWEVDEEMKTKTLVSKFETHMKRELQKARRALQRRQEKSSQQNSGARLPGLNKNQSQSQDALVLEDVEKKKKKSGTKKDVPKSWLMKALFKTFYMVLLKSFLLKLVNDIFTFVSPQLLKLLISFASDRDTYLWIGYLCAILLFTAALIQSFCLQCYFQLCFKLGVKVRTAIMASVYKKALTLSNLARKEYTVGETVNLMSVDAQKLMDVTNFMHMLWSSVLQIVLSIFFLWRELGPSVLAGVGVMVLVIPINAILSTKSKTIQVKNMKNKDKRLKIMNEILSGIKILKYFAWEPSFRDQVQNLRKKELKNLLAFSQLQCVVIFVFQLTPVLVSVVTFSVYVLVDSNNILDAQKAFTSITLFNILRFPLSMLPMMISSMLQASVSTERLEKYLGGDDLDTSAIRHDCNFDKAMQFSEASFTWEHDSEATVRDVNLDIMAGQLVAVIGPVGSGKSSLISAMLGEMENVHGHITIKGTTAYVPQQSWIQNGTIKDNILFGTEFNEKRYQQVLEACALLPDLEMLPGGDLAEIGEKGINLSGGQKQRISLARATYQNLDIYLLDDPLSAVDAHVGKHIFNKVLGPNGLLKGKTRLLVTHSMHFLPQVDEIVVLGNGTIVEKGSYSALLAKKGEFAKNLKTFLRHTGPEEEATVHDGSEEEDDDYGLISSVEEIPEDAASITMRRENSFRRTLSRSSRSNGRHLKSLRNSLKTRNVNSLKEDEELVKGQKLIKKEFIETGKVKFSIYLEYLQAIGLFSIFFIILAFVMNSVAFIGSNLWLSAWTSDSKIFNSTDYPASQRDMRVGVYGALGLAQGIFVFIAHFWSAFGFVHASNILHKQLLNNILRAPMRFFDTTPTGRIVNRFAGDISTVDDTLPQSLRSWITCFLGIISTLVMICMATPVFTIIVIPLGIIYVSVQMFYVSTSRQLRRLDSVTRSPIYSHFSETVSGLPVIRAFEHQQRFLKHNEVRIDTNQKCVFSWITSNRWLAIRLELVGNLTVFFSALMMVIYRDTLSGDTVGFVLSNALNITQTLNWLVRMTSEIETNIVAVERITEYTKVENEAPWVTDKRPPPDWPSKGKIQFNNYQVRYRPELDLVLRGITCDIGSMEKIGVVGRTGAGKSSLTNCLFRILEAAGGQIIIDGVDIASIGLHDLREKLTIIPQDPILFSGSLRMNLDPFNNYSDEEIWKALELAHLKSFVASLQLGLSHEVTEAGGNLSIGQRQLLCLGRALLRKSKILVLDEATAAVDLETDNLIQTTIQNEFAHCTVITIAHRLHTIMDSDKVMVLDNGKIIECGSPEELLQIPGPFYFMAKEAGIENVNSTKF

[3] = molecular target: T2, Solute carrier organic anion transporter family member 1B1 (Homo sapiens, UniProt Q9Y6L6); assay: Substrates of transporters of clinical importance in the absorption and disposition of drugs, OATP1B1
T2 sequence (Q9Y6L6 whole entry): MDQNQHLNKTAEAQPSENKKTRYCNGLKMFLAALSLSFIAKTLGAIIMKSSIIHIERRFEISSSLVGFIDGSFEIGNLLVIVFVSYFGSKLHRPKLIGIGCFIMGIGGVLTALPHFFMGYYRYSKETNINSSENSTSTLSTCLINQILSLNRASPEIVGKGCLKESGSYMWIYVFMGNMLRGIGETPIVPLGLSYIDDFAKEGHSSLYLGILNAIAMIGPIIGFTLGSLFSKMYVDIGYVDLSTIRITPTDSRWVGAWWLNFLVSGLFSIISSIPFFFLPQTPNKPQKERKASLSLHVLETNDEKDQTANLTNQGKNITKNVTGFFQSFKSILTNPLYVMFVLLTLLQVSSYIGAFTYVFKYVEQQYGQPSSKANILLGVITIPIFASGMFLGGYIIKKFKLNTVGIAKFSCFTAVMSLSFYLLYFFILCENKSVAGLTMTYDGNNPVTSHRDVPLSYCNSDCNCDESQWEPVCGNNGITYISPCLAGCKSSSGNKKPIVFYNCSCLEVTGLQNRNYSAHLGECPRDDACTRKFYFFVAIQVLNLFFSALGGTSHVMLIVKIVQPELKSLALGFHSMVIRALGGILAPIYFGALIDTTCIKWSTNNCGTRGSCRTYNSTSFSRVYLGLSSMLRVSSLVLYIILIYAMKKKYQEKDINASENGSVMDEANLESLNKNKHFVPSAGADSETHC

[4] = molecular target: ATP-dependent translocase ABCB1 (Homo sapiens, UniProt P08183); assay: Substrates of transporters of clinical importance in the absorption and disposition of drugs, MDR1
Sequence of ATP-dependent translocase ABCB1 (P08183 whole entry): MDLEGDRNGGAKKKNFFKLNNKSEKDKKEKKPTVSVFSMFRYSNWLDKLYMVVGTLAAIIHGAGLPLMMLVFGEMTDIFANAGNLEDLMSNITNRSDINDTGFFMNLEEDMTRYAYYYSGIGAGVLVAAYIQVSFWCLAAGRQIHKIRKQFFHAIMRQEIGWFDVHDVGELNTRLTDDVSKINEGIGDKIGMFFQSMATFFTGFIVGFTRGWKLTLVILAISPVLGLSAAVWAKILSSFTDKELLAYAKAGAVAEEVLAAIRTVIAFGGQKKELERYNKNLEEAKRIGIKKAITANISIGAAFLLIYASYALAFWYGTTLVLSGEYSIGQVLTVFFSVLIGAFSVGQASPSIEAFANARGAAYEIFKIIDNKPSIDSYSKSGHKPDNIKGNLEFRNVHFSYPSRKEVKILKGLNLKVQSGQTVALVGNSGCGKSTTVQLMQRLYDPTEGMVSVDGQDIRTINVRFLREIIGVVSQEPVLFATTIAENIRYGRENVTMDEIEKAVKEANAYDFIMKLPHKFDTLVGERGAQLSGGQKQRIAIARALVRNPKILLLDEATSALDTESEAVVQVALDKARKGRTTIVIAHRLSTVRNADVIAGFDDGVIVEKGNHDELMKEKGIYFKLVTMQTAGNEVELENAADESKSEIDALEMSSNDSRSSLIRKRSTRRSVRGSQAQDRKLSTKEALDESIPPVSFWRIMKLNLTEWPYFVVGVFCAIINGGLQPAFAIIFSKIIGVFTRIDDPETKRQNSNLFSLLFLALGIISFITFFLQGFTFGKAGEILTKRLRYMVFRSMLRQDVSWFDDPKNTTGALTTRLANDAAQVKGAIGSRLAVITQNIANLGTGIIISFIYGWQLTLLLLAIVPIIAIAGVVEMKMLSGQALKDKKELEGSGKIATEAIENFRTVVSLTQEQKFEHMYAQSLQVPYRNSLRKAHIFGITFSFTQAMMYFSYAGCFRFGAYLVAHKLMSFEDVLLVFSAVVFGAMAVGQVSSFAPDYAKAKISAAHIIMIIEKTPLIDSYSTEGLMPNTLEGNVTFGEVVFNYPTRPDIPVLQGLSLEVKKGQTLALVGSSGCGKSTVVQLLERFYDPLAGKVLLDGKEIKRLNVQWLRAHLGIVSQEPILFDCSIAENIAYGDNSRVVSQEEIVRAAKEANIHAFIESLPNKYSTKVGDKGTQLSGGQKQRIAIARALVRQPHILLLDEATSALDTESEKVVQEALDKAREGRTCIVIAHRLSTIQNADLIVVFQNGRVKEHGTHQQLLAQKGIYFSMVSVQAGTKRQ

[5] = molecular target: T3, ATP-binding cassette sub-family C member 4 (Homo sapiens, UniProt O15439); assay: Substrates of transporters of clinical importance in the absorption and disposition of drugs, MRP4
T3 sequence (O15439 whole entry): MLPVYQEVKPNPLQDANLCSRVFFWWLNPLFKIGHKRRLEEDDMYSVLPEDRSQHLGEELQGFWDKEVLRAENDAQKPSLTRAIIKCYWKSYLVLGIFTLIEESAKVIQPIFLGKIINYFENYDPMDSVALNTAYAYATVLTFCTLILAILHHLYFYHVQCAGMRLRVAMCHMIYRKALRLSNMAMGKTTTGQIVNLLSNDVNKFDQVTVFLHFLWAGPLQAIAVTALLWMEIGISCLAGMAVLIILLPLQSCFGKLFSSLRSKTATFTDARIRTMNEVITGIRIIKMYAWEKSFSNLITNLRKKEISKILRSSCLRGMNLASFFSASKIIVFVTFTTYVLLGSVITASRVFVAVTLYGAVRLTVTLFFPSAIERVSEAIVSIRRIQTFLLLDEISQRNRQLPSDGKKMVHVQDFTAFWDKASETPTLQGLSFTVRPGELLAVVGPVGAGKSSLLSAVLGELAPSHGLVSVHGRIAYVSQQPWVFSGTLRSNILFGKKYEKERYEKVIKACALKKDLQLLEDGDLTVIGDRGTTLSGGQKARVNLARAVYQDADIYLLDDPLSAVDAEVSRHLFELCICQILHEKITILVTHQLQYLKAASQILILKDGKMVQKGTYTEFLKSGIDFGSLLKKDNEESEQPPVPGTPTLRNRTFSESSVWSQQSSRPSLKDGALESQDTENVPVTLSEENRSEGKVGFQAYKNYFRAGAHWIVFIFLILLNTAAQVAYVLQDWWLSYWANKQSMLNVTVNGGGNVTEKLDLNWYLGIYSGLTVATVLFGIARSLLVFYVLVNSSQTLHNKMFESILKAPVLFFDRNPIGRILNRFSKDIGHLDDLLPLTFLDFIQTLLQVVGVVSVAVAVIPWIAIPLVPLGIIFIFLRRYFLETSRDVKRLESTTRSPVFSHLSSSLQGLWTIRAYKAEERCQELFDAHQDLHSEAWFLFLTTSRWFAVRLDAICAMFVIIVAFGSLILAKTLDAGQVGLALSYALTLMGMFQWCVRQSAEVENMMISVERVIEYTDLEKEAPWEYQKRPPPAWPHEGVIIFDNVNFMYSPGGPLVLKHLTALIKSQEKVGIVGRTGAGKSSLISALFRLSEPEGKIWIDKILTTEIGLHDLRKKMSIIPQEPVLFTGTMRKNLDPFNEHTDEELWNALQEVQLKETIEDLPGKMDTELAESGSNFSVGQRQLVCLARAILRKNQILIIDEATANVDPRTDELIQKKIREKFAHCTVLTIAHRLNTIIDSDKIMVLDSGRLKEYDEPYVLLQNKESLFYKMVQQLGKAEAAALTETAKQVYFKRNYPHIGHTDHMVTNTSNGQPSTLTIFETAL

[6] = molecular target: T4, Solute carrier family 15 member 1 (Homo sapiens, UniProt P46059); assay: Substrates of transporters of clinical importance in the absorption and disposition of drugs, PEPT1
T4 sequence (P46059 whole entry): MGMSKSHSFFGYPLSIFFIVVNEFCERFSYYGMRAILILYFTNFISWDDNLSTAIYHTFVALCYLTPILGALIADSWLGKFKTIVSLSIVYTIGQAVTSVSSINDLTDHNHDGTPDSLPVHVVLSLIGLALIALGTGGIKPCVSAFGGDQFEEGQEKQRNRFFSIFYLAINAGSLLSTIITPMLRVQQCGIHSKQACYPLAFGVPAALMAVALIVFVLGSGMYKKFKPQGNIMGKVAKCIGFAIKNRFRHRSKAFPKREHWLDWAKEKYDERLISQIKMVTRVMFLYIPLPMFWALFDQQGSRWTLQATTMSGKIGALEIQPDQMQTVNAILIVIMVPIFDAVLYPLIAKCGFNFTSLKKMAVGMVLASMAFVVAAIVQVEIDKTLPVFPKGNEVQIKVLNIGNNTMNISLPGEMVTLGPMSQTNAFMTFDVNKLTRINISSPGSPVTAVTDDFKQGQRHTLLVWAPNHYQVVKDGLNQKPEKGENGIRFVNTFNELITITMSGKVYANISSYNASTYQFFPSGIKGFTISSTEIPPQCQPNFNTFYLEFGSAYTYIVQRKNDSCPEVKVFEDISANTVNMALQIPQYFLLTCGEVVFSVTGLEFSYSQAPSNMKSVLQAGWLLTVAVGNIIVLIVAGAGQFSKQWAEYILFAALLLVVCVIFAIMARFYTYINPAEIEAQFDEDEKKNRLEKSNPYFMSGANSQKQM

[7] = molecular target: T5, Solute carrier family 15 member 2 (Homo sapiens, UniProt Q16348); assay: Substrates of transporters of clinical importance in the absorption and disposition of drugs, PEPT2
T5 sequence (Q16348 whole entry): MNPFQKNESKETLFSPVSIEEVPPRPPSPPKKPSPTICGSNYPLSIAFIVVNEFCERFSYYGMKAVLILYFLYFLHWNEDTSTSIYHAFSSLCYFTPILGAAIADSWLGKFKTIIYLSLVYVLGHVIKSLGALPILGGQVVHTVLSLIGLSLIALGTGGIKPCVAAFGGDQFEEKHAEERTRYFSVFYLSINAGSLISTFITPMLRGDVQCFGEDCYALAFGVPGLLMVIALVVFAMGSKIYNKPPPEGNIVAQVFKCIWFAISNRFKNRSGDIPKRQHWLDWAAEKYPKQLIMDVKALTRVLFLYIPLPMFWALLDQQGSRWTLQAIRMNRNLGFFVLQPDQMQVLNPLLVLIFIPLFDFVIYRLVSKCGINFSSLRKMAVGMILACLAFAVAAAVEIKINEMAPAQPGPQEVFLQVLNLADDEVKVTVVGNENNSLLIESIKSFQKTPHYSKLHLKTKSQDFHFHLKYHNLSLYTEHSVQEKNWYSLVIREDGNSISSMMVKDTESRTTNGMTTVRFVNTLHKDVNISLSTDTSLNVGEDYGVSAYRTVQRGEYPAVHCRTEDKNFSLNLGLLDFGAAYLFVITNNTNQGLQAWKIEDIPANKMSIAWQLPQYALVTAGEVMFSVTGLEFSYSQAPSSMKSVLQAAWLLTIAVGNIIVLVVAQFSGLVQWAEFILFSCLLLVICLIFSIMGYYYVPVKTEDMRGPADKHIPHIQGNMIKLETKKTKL

[8] = molecular target: T6, Solute carrier organic anion transporter family member 1A2 (Homo sapiens, UniProt P46721); assay: Substrates of transporters of clinical importance in the absorption and disposition of drugs, OATP1A2
T6 sequence (P46721 whole entry): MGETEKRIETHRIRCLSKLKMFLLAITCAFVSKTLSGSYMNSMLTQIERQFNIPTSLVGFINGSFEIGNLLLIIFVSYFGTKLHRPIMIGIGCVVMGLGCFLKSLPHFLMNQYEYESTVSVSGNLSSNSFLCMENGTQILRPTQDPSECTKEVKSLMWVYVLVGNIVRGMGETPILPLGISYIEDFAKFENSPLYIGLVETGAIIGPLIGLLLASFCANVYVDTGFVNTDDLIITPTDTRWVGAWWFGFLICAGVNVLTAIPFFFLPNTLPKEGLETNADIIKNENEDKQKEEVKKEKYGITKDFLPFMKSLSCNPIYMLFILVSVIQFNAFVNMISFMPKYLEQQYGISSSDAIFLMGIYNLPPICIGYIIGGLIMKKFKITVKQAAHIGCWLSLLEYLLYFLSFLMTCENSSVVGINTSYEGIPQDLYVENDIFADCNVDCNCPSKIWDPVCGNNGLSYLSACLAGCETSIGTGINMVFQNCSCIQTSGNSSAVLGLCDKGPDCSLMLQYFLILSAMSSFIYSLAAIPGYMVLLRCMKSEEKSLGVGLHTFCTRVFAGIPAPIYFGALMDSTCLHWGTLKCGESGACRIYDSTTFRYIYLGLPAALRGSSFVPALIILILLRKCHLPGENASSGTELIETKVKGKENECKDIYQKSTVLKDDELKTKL

In the case of CCCc1nc(C(C)(C)O)c(C(=O)O)n1Cc1ccc(-c2ccccc2-c2nnn[nH]2)cc1 [OLMESARTAN], the Activity [1] is reported as “transporter substrate”, the Activity [2] is reported as “transporter substrate” and the Activity [3] is reported as “transporter substrate”.

In the case of COc1cccc2c1C(=O)c1c(O)c3c(c(O)c1C2=O)C[C@@](O)(C(=O)CO)C[C@@H]3O[C@H]1C[C@H](N)[C@H](O)[C@H](C)O1 [DOXORUBICIN], the Activity [4] is reported as “transporter substrate”.

For CN(C)C(=O)C(CCN1CCC(O)(c2ccc(Cl)cc2)CC1)(c1ccccc1)c1ccccc1 [LOPERAMIDE], the Activity [4] was “transporter substrate”.

For CCc1c2c(nc3ccc(OC[C@@H]4O[C@H](C(=O)O)[C@@H](O)[C@H](O)[C@H]4O)cc13)-c1cc3c(c(=O)n1C2)COC(=O)[C@]3(O)CC, the Activity [2] was “transporter substrate”.

In the case of COc1ccc2cc3[n+](cc2c1OC)CCc1cc2c(cc1-3)OCO2.[Cl-] [BERBERINE CHLORIDE], the Activity [4] is reported as “transporter substrate”.

For Nc1nc2c(ncn2[C@@H]2O[C@@H]3COP(=O)(O)O[C@H]3[C@H]2O)c(=O)[nH]1, the Activity [5] was “transporter substrate”.

In the case of CC1=C(C(=O)O)N2C(=O)[C@@H](NC(=O)[C@H](N)c3ccccc3)[C@H]2SC1 [CEPHALEXIN ANHYDROUS], the Activity [6] is reported as “transporter substrate” and the Activity [7] is reported as “transporter substrate”.

For C[C@]12CC[C@H](OS(=O)(=O)O)CC1=CC[C@@H]1[C@@H]2CC[C@]2(C)C(=O)CC[C@@H]12 [PRASTERONE SULFURIC ACID], the Activity [8] was “transporter substrate” and the Activity [5] was “transporter substrate”.

For CCCCC(=O)N(Cc1ccc(-c2ccccc2-c2nnn[nH]2)cc1)[C@H](C(=O)O)C(C)C, the Activity [1] was “transporter substrate”, the Activity [2] was “transporter substrate” and the Activity [3] was “transporter substrate”.

In the case of COc1cc([C@@H]2c3cc4c(cc3[C@@H](O[C@@H]3O[C@@H]5CO[C@@H](C)O[C@H]5[C@H](O)[C@H]3O)[C@H]3COC(=O)[C@H]23)OCO4)cc(OC)c1O [ETOPOSIDE], the Activity [2] is reported as “transporter substrate”.
